From patent publication US10011571B2, “Preparation method for aromatic heterocyclic compound used as selective JAK3 and/or JAK1 kinase inhibitor and application of aromatic heterocyclic compound” (SHENZHEN CHIPSCREEN BIOSCIENCES, LTD., priority 2014, dated 2018)

Legend:
[1] = test system: IL-4/JAK1 & 3/STAT6 (THP-1); assay: Intracellular activity assay, IL-4 induced STAT6 phosphorylation in THP-1; assay type: cell-based; conditions: Homo sapiens; inhibition of STAT6 phosphorylation, THP-1, IL-4 10 ng/mL
From the text: (§1) In this experiment, western blot (WB) and flow cytometry are used to evaluate the intracellular activities of the test compounds by comparing the relative levels of the signals of phosphorylated and non-phosphorylated STATs in 5 cell models, including U937, THP-1, CTLL-2, UT-7/EPO and activated human periphery blood cell (hPBC). The primary antibody and secondary antibody used in WB hybridization in this experiment are purchased from Cell Signaling Company (http://www.cellsignal.com). The fluorescence-labeled antibodies used in flow cytometry are purchased from eBiosciences Company (http://www.ebioscience.com).
THP-1 is a monocytic cell line. […] The intracellular inhibitory activity of the compounds on JAK1/3 can be evaluated by detecting the change of the phosphorylation level of STAT6. […]
(2) Protein extraction and WB detection: after extraction, the protein content is determined. […]
(3) Signal detection: the hybridization signal is detected by X-ray imaging. The grey scale signal obtained by scanning is converted to digital signal, and the signal intensities for both phosphorylated STATs and STATs are each calculated to evaluate the phosphorylation inhibitory activities of the compounds on STATs. […]
(§2) (2) Cell fixation and fluorescence labeling: the cells are fixed using paraformaldehyde (30 min), and subsequently treated for membrane permeability in chilled methanol (15 min). […]

[2] = test system: IL-2/JAK1 & 3/STAT5 (CTLL-2); assay: Intracellular activity assay, IL-2 induced STAT5 phosphorylation in CTLL-2; assay type: cell-based; conditions: Mus musculus; inhibition of STAT5 phosphorylation, CTLL-2, IL-2 10 ng/mL
From the text: as §1
CTLL-2 is a T-cell line, and its proliferation and growth depends on cytokine IL-2. […] The intracellular inhibitory activity of the compounds on JAK1/3 can be evaluated by detecting the change of the phosphorylation level of STAT5. […]
as §2
(3) Detection by flow cytometry: the detection is carried out using Guava® easyCyte flow cytometer according to the instruction. The median fluorescent intensity (MFI) of a sample is detected using an appropriate cell population. […]

[3] = test system: collagen-induced arthritis (CIA) model of rats; assay: Collagen-induced arthritis (CIA) model of rats; assay type: in vivo; conditions: rat CIA; for swelling degree induced by arthritis in the rats, compared to the solvent group: 40 mg/kg i.g.; for Inhibitory rate for arthritis score % / Inhibitory rate for paw volume % / Inhibitory rate for toe thickness % / Body weight growth rate %: 14 days after administration, Examples 40 mg/kg i.g. twice/day, MTX 5 mg/kg i.p. twice a week; for Body weight growth rate %: solvent = 100.0; for toxicity to the rats judged from body weight: compared to the solvent group
Description: Objective: in this test, arthritis is induced by chicken collagen in Wistar rats. After in vivo administration of the compounds of Example 7 and Example 22, the change of the disease index for arthritis in rats is evaluated to determine the therapeutic effect of the test compounds on rat arthritis.
Experimental animals: 36 female Wistar rats were purchased from the animal experiment center, Sun Yat-Sen University (Guangzhou) with the body weight ranging from 180 to 200 g at the beginning of experiment. Four groups (8 rats in each group) were used as the arthritis model, and another group (4 rats) was used as normal control.
Materials: chicken type II collagen and Freund's complete adjuvant were purchased from Beijing Biolead Science and Technology Development Co., Ltd. Positive control: methotrexat (MTX).
Preparation method: the test compounds were prepared by adding them to freshly prepared 0.2% CMC-Na+0.1% Tween-80 solution in sterile water to a desired concentration and thoroughly mixing through ultrasound.
CIA model: the chicken collagen was fully emulsified in equal volume of freud's complete adjuvant, and subcutaneously injected at the tail root of the rat on day 0 for sensitization (250 μL/rat). Another injection was performed at the tail root on day 7 for supplementary immunization (100 μL/rat). After arthritis occurred (on about day 13), the rats were randomly divided into 4 groups with 8 rats in each group. Administration started on day 14 after the first immunization, and lasted for 14 days. The limbs of a rat were visually inspected, and the severity of arthritis was scored in a range from […]: 0=normal; 1=a slight symptom, with signs, such as red and swollen ankle or wrist; 2=moderate red and swollen ankle or wrist; 3=severe red and swollen paw, including toes; 4=severe swollen joint accompanied with dysfunction; the highest score for each rat was 16. The thickness of toes of posterior limbs and the paw volume were measured at the same time.
Medication: the rats were i.g. administered with the compound of Example 7 at a concentration of 40 mg/kg twice/day; or the rats were i.g. administered with the compound of Example 22 at a concentration of 40 mg/kg twice/day. For the positive control, 5 mg/kg MTX was intraperitoneally injected twice a week. The i.g. administration of solvent was used as the negative control. The data obtained 14 days after administration and before administration were compared.

SMILES: C=CC(=O)N(C)c1cc(Nc2ncc(Cl)c(NCCCNC(=O)c3ccc(F)cc3)n2)ccc1F [Example 23, N-(3-(5-chloro-2-(4-fluoro-3-(N-methylacrylamido)phenylamino)pyrimidinyl-4-amino)propyl)-4-fluorobenzamide]
- IC50 [1]: 1730 nM
- IC50 [2]: 130 nM

SMILES: C=CC(=O)N(C)c1cc(Nc2ncc(Cl)c(NCCCNC(=O)c3ccc(C#N)cc3)n2)ccc1F [Example 7, N-(3-(5-chloro-2-(4-fluoro-3-(N-methylacrylamido)phenylamino)pyrimidinyl-4-amino)propyl)-4-cyano-benzamide]
- IC50 [1]: 1690 nM
- swelling degree induced by arthritis in the rats, compared to the solvent group [3]: significantly inhibited
- Inhibitory rate for arthritis score % [3]: 75.0%
- Inhibitory rate for paw volume % [3]: 63.6%
- Inhibitory rate for toe thickness % [3]: 74.3%
- Body weight growth rate % [3]: 102.2%
- toxicity to the rats judged from body weight [3]: no significant toxicity
- IC50 [2]: 80 nM

SMILES: C=CC(=O)N(C)c1cc(Nc2ncc(Cl)c(NCCCNC(=O)c3ccc(C(F)(F)F)cc3)n2)ccc1F [Example 22, N-(3-(5-chloro-2-(4-fluoro-3-(N-methylacrylamido)phenylamino)pyrimidinyl-4-amino)propyl)-4-trifluoromethylbenzamide]
- swelling degree induced by arthritis in the rats, compared to the solvent group [3]: certain inhibitory effect
- Inhibitory rate for arthritis score % [3]: 25.5%
- Inhibitory rate for paw volume % [3]: 24.6%
- Inhibitory rate for toe thickness % [3]: 13.9%
- Body weight growth rate % [3]: 102.0%
- toxicity to the rats judged from body weight [3]: no significant toxicity
